We go through 23 molecules from patent US8361998B2, “Compounds and their use as IKACh blockers” (AstraZeneca AB, priority 2010, dated 2013).

Structures are written as SMILES.

The target of this test is T1, human cardiac ion channel proteins hKir3.1/Kir3.4 (Homo sapiens, UniProt P48544+P48549).
T1 construct: expressed in transfected cells
T1 sequence (P48549 1-501): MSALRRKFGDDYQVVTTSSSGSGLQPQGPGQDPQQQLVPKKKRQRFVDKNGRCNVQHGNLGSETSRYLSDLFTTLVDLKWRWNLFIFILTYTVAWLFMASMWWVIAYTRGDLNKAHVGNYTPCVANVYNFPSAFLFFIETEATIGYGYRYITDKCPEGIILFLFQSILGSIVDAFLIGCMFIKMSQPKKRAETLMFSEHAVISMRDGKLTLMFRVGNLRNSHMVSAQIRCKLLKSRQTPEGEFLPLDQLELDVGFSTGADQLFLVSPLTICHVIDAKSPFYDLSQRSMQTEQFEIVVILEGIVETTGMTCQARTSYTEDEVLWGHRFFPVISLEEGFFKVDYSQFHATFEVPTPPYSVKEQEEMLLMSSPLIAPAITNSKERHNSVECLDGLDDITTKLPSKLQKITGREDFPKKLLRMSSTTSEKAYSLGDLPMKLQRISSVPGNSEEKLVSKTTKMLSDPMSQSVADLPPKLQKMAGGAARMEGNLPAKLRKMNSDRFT
T1 sequence (P48544 1-419): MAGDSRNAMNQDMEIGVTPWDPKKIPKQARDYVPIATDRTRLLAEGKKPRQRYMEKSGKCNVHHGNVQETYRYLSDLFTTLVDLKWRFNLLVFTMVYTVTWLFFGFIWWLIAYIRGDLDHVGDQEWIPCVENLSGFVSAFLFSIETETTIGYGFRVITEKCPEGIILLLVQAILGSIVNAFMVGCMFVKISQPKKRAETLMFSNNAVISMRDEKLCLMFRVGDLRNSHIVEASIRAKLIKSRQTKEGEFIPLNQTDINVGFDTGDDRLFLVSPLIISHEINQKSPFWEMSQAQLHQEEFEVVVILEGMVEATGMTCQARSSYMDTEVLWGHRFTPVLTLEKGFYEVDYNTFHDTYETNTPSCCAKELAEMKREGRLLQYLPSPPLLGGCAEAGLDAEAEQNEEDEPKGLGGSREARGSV
Briefly: Atomic Absorption Screening (AAS) Rb efflux assay of hKir3.1/Kir3.4 block, carbachol/high K+ stimulated, 10-pt or 7-pt CR. The class given is cell-based. The following applies: 10-pt CR (0.003 to 67 μmol/L), AAS Rb efflux, CHO-K1 cells expressing hKir3.1/Kir3.4; mean of >4 replicates; read-out: IKACh IC50 10-pt CR, AAS. An excerpt: Human KCNJ3 encoding Kir3.1 (Genbank acc. No. NM_002239) was inserted between EcoRI and NotI in the pIRESneo3 vector (Clontech Laboratories, Inc. CA, USA). Human KCNJ5 encoding Kir3.4 (Genbank Acc. No. BC069482) was inserted between EcoR1 and Not1 in the pIRESpuro3 vector (Clontech Laboratories, Inc. CA, USA). A Kozak sequence (GCCACC) was introduced before the start codon ATG of both constructs. Chinese Hamster Ovary K1, CHO-FLP/IN, cells (Invitrogen Corporation, Paisley, UK) were transfected simultaneously using Lipofectamine 2000 reagent (Invitrogen Corporation, Paisley, UK). Geneticin 600 μg/mL (Invitrogen Corporation, Paisley, UK) and puromycin 3 μg/mL (BD Bioscience) were added to the cell culture medium 3 days after transfection. Two weeks after transfection, colonies had appeared and were manually picked and sorted to one cell per well in a 96-well plate. Cells were then tested for Kir3.1 and Kir3.4 expression using membrane potential assay, Western Blot and Immunocytochemistry. […] The cell line was re-sorted by flow cytometry and resulting clones were assayed electrophysiologically using IonWorks (Molecular Devices) and later validated on the Q-Patch (Sophion A/S).
The stable cell line was cultured in DMEM/F12 with Glutamax 1 (Invitrogen Corporation, Paisley, UK), supplemented with foetal bovine serum 10%, puromycin 3 μg/mL, hygromycin 300 μg/mL and geneticin 600 μg/mL (Invitrogen Corporation, Paisley, UK). Care was taken not to seed cells at too low density and cells were passaged at approximately 70-80% confluency. Cells used for patch-clamp experiments were prepared by washing using PBS (—Mg, —Ca^2+), 2 times, detached using Accutase (Sigma). For Q-Patch measurements, storage medium was prepared fresh by adding 1.25 mL of 1M Hepes (GibcoBRL) to 50 mL CHO-SFM II medium (GibcoBRL) and detached cells were diluted to 2 million cells/mL in this medium. Frozen (Cryopreserved) cells were used for Atomic Absorption Screening (AAS) and plated poly-D-lysine 384-well plates (Greiner) at a density of 11,000-13,000 cells/well, the day before assay.
The blocking effects of compounds on the human cardiac ion channel proteins hKir3.1/Kir3.4 were assessed in CHO-K1 cells stably expressing the channel proteins using Atomic Absorption Screening (AAS). Cells were washed and then loaded with 25 μL Rb-loading buffer for three hours at 37° C. After that, the cells were washed again and 25 μL of diluted compound was transferred to the cell plate, incubated for 5 min in RT, and then […] of Carbachol/high K+ (10 μM carbachol and 20 mM KCl final concentration) buffer added to stimulate the cells and open the Kir3.1/Kir3.4 channel. After 10 min stimulation, […] of the supernatant was transferred to a new microplate, 45 μL washing buffer added to the supernatant and the level of Rb in the supernatant was then measured using an Aurora ICR 8000. Compounds were studied at concentrations ranging from 0.003 to 67 μmol/L (dilutions by three, 10-pt CR) or from 0.037 to 27 μmol/L (dilutions by three, 7-pt CR).
Stock solutions of compounds were prepared in DMSO 10 mM and stored at RT. Buffers used for AAS contained (in mM): HEPES 20, NaCl 150, MgCl2 1.0, CaCl2 2.0 and NaH2PO4 0.8 and Glucose 10 (wash 1) or KCl 5 and Glucose 5 (wash 2) or KCl 5 (dilution buffer). The High K^+ channel opener buffer contained (in mM): HEPES 20, NaCl 130, MgCl2 1.0, CaCl2 2.0 and NaH2PO4 0.8 together with KCl 20. Solutions used for Q-Patch (extracellular) in mM: NaCl 145, KCl 4, CaCl2 2.0, MgCl2 1.0, HEPES 10 and glucose 10. The high K^+ extra cellular solution used for Q-Patch in mM: NaCl 96.7, KCl 50.7, CaCl2 2.0, MgCl2 1.0, HEPES 10 and glucose 10 while the intra cellular solution used was (in mM): KCl 120, CaCl2 5.374, MgCl2 1.75, EGTA 10, KOH 3.125, HEPES 10, Na2ATP 4.
Results are given as mean IC50 of >4 replicates (10-pt CR, AAS) or >3 replicates (7-pt CR, AAS). Some of the data in Table 1 are mean values of two or more runs. […]

One may read the IC50 as the concentration at which inhibition is half-maximal. In the case of `CCC[C@@H](CN1CCC1)N(C)C(=O)c1ccc(Cl)cc1Cl` [Example 1.1, (S)—N-(1-(Azetidin-1-yl)pentan-2-yl)-2,4-dichloro-N-methylbenzamide], the IC50 was 2.3 µM. In the case of `CCC[C@@H](CN1CCC1)N(C)C(=O)c1ccc(Br)cc1` [Example 1.3, (S)-N-(1-(Azetidin-1-yl)pentan-2-yl)-4-bromo-N-methylbenzamide], the IC50 is 3.1 µM. Turning to `Cc1cc(C(=O)N(C)[C@H](CN2CC(F)C2)C(C)C)ccc1F` [Example 1.5, (S)-4-Fluoro-N-(1-(3-fluoroazetidin-1-yl)-3-methylbutan-2-yl)-N,3-dimethylbenzamide], the IC50 stood at 12 µM. Take `CC(C)[C@@H](CN1CC(F)C1)N(C)C(=O)c1ccc(Cl)cc1` [Example 1.6, (S)-4-Chloro-N-(1-(3-fluoroazetidin-1-yl)-3-methylbutan-2-yl)-N-methylbenzamide]: the IC50 came to 6.7 µM.

As for `CC(C)[C@@H](CN1CC(F)C1)N(C)C(=O)c1ccc(Br)cc1` [Example 1.7, (S)-4-Bromo-N-(1-(3-fluoroazetidin-1-yl)-3-methylbutan-2-yl)-N-methylbenzamide], the IC50 is 5 µM. With `CC(C)[C@@H](CN1CC(F)C1)N(C)C(=O)c1ccc(F)c(Cl)c1` [Example 1.8, (S)-3-Chloro-4-fluoro-N-(1-(3-fluoroazetidin-1-yl)-3-methylbutan-2-yl)-N-methylbenzamide], the IC50 turned out to be 11 µM.

In the case of `CC(C)[C@@H](CN1CC(F)C1)N(C)C(=O)c1ccc(F)c(C(F)(F)F)c1` [Example 1.9, (S)-4-Fluoro-N-(1-(3-fluoroazetidin-1-yl)-3-methyl-butan-2-yl)-N-methyl-3-(trifluoromethyl)benzamide], the IC50 is 3.6 µM. In the case of `Cc1cc(C(=O)N(C)[C@H](CN2CCC2)C(C)C)ccc1F` [Example 1.10, (S)-N-(1-(Azetidin-1-yl)-3-methylbutan-2-yl)-4-fluoro-N,3-dimethylbenzamide], the IC50 was 6.9 µM. Take `CC(C)[C@@H](CN1CCC1)N(C)C(=O)c1ccc(F)c(C(F)(F)F)c1` [Example 1.11, (S)-N-(1-(Azetidin-1-yl)-3-methylbutan-2-yl)-4-fluoro-N-methyl-3-(trifluoromethyl)benzamide]: the IC50 came to 1.2 µM. With `CC(C)[C@@H](CN1CCC1)N(C)C(=O)c1ccc(F)c(Cl)c1` [Example 1.12, (S)-N-(1-(Azetidin-1-yl)-3-methylbutan-2-yl)-3-chloro-4-fluoro-N-methylbenzamide], the IC50 was determined as 2.9 µM. Consider `CC(C)[C@@H](CN1CCC1)N(C)C(=O)c1cccc(Cl)c1` [Example 1.13, (S)-N-(1-(Azetidin-1-yl)-3-methylbutan-2-yl)-3-chloro-N-methylbenzamide], for which the IC50 worked out at 12 µM. Regarding `CC(C)[C@@H](CN1CCC1)N(C)C(=O)c1ccccc1` [Example 1.14, (S)-N-(1-(Azetidin-1-yl)-3-methylbutan-2-yl)-N-methylbenzamide], the IC50 turned out to be 6.6 µM. Take `CC(C)[C@@H](CN1CCC1)N(C)C(=O)c1cccc(C(F)(F)F)c1` [Example 1.15, (S)-N-(1-(Azetidin-1-yl)-3-methylbutan-2-yl)-N-methyl-3-(trifluoromethyl)benzamide]: the IC50 was found to be 2.3 µM.

As to `Cc1cccc(C(=O)N(C)[C@H](CN2CCC2)C(C)C)c1` [Example 1.16, (S)-N-(1-(Azetidin-1-yl)-3-methylbutan-2-yl)-N,3-dimethyl-benzamide], the IC50 is 17 µM. Take `CN(C(=O)c1ccc(Cl)c(Cl)c1)[C@H](CN1CCCC1)C(C)(C)C` [Example 2.1, (S)-3,4-Dichloro-N-(3,3-dimethyl-1-(pyrrolidin-1-yl)butan-2-yl)-N-methylbenzamide]: the IC50 was 11 µM. Under `CN(C(=O)c1ccc(Br)cc1)[C@H](CN1CCCC1)C(C)(C)C` [Example 2.2, (S)-4-Bromo-N-(3,3-dimethyl-1-(pyrrolidin-1-yl)butan-2-yl)-N-methylbenzamide] stands 14 µM; under `CC[C@H](C)[C@@H](CN1CCCC1)N(C)C(=O)c1ccc(Cl)cc1` [Example 2.3, 4-Chloro-N-methyl-N-((2S,3S)-3-methyl-1-(pyrrolidin-1-yl)pentan-2-yl)benzamide], 1.6 µM; under `CC[C@H](C)[C@@H](CN1CCCC1)N(C)C(=O)c1ccc(Br)cc1` [Example 2.4, 4-Bromo-N-methyl-N-((2S,3S)-3-methyl-1-(pyrrolidin-1-yl)pentan-2-yl)benzamide], 1.8 µM. For the molecule `CC[C@H](C)[C@@H](CN1CCCC1)N(C)C(=O)c1ccc(F)c(C)c1` [Example 2.5, 4-Fluoro-N,3-dimethyl-N-((2S,3S)-3-methyl-1-(pyrrolidin-1-yl)pentan-2-yl)benzamide], the IC50 was 2.7 µM. With `CC[C@H](C)[C@@H](CN1CCCC1)N(C)C(=O)c1ccc(Cl)cc1Cl` [Example 2.6, 2,4-Dichloro-N-methyl-N-((2S,3S)-3-methyl-1-(pyrrolidin-1-yl)pentan-2-yl)benzamide], the IC50 was determined as 2 µM. With `CO[C@H](C)[C@@H](CN1CCCC1)N(C)C(=O)c1ccc(F)c(C)c1` [Example 3.1, 4-Fluoro-N-((2R,3R)-3-methoxy-1-(pyrrolidin-1-yl)butan-2-yl)-N,3-dimethylbenzamide], the IC50 amounted to 7.4 µM. For `CO[C@H](C)[C@@H](CN1CCCC1)N(C)C(=O)c1cccc(C)c1` [Example 3.2, N-((2R,3R)-3-Methoxy-1-(pyrrolidin-1-yl)butan-2-yl)-N,3-dimethylbenzamide], the IC50 turned out to be 20 µM. Take `CO[C@H](C)[C@@H](CN1CCCC1)N(C)C(=O)c1ccc(F)c(Cl)c1` [Example 3.3, 3-Chloro-4-fluoro-N-((2R,3R)-3-methoxy-1-(pyrrolidin-1-yl)butan-2-yl)-N-methylbenzamide]: the IC50 was found to be 7.2 µM.
